Test results from PubChem BioAssay AID489033 (Sanford-Burnham Center for Chemical Genomics, 2010).
Active and inactive are the calls of the source. No rule for the calls is given here.

Test system: 697B B-cell line, NF-kB luciferase reporter luminescence
Experiment: inhibitors of B-cell NF-kB luciferase signal – 697B cells, luminescence, selectivity assay for T-cell antigen receptor NF-kB inhibitors, dose response (AID 489033)

In the case of `COc1cc2c(cc1O)CC[C@@H]1[C@@H]2CC[C@]2(C)[C@@H](O)CC[C@@H]12`, the IC50 is reported as > 80 µM (inactive).

Compound `CC1C/C(=C/c2ccncc2)C(=O)/C(=C/c2ccncc2)C1` (stereo not given) has an IC50 of 8.39 µM.

For `CCOc1ccccc1NC(=O)CN(c1ccc(OC)cc1)S(=O)(=O)c1c(C)noc1C`, the IC50 was > 80 µM (inactive).

With `CCOCCOC(=O)c1[nH]c2c(c1C)C(=O)CC(c1ccccc1)C2` (stereo not given) the IC50 was > 80 µM (inactive).

With `O=C(Sc1cccc2cccnc12)c1ccc(F)cc1` the IC50 was 1.03 µM.

Work on `C=C1C(=O)O[C@H]2C[C@@H](C)[C@@H]3C=CC(=O)[C@@]3(C)C[C@H]12` yielded an IC50 of 1.25 µM.

Work on `Cc1ccc(C(=O)Nc2cc3ccccc3oc2=O)cc1` yielded an IC50 of 2.11 µM.

`COc1cc(/C=C2/SC(=Nc3ccc(O)cc3)NC2=O)ccc1O` was tested, and the IC50 was 23.4 µM (inactive).

In the case of `CC(C)CC[n+]1ccccc1/C=C/c1ccc(N(C)C)cc1`, the IC50 is reported as > 80 µM (inactive).

`Cc1cc2c(cc1C)C(c1ccccc1OC(C)C)CC(=O)N2` (stereo not given) was tested, and the IC50 was > 80 µM (inactive).

With `COc1cccc(N2CCN(C(=O)c3cn(Cc4ccccc4)nc3-c3cccnc3)CC2)c1` the IC50 was > 80 µM (inactive).

`CC(=O)c1c(C)[nH]c(C(=O)OCC(=O)Nc2ccc(C)cc2[N+](=O)[O-])c1C` gave an IC50 of 11.3 µM.

Compound `O=C(O)c1ccc(N/N=C/c2ccc3c(c2)OCO3)cc1` has an IC50 of 1.04 µM.

In the case of `COc1ccc([C@H]2CC(=O)C=C(c3ccc(OC)cc3OC)C2)cc1`, the IC50 is reported as > 80 µM (inactive).

With `COc1cc(Cn2c(-c3nonc3N)nc3ccccc32)ccc1C` the IC50 was > 80 µM (inactive).

`C=CCn1c(C)cc(C2=NNC(=NCC)SC2)c1C` was tested, and the IC50 was less than 0.16 µM.

`Cc1cc(O)c2c(c1O)C(=O)[C@]13C(=C2O)C(=O)[C@@H]2[C@@H](O)[C@H]1[C@@H]1[C@H](O)[C@H]3C(=O)C3=C(O)c4c(O)cc(C)c(O)c4C(=O)[C@]312` was tested, and the IC50 was > 80 µM (inactive).

With `COC(=O)c1nn(-c2ccc3c(c2)CCN3C(C)=O)cc1O` the IC50 was 5.08 µM.

`COc1cc(C2C(C#N)=C(N)Oc3cc4c(cc32)OCO4)cc(OC)c1OC` (stereo not given) was tested, and the IC50 was > 80 µM (inactive).

In the case of `COc1cccc(-c2cc(C(=O)Nc3cc(C)n(Cc4ccc(Cl)cc4)n3)no2)c1`, the IC50 is reported as > 80 µM (inactive).

For `COc1cc(NS(C)(=O)=O)ccc1Nc1c2ccccc2nc2ccccc12`, the IC50 was 15.8 µM.

For `CCOc1ccc(N(CC(=O)Nc2ccccc2C)S(=O)(=O)c2c(C)noc2C)cc1`, the IC50 was > 80 µM (inactive).

With `Cc1ccc(C(=O)Nc2ncc(Cc3ccc(SC(F)F)cc3)s2)cc1` the IC50 was > 80 µM (inactive).

With `Cc1ccc(C(=O)c2cc([N+](=O)[O-])ccc2N2CCOCC2)cc1C` the IC50 was > 80 µM (inactive).

`C=CCOC(=O)c1[nH]c2c(c1C)C(=O)CC(c1ccco1)C2` (stereo not given) was tested, and the IC50 was > 80 µM (inactive).

With `CCOCCOC(=O)c1[nH]c2c(c1C)C(=O)CC(c1cccs1)C2` (stereo not given) the IC50 was > 80 µM (inactive).

For `CCN(CC)c1ccc(-c2nn3c(-c4ccccc4OC)nnc3s2)cc1`, the IC50 was > 80 µM (inactive).

Compound `Cc1nc(Nc2nc3c(c(=O)[nH]2)CCC3)nc2ccccc12` has an IC50 of 6.06 µM.

For `CCN(CC)c1ccc(/C=N/NC(=O)c2cccc(S(=O)(=O)Nc3ccccc3OC)c2)c(O)c1`, the IC50 was 3.3 µM.

In the case of `Cc1cccc(OCCNC(=O)c2ccc(Cl)c(S(=O)(=O)NCc3cccnc3)c2)c1`, the IC50 is reported as > 80 µM (inactive).

Compound `COc1ccc(C(C(=O)NC2CCCCC2)N(C(=O)CCl)c2ccc(C)cc2)cc1` (stereo not given) has an IC50 of less than 0.16 µM.

`C#CC[N+](C)(C)CCCCCCCCCCCC` was tested, and the IC50 was 2.56 µM.

In the case of `CCCSc1nnc(Sc2nnnn2-c2ccccc2)s1`, the IC50 is reported as 7 µM.

With `COc1ccc(-n2nnnc2-c2ccccc2)cc1` the IC50 was > 80 µM (inactive).

With `Cc1cc(C)cc(C(=O)N2CC(=O)Nc3ccccc32)c1` the IC50 was > 80 µM (inactive).

Work on `COc1ccc(Cn2c(SCc3ccc(C)cc3)nc3cc(OC)c(OC)cc3c2=N)cc1Cl` yielded an IC50 of 4.8 µM.

Compound `COc1cc2nc(NC(=O)c3ccco3)sc(=O)c2cc1OC` has an IC50 of 0.67 µM.

For `CCCCc1ccc(NC(=O)c2ccc(N(C)S(C)(=O)=O)cc2)cc1`, the IC50 was > 80 µM (inactive).

Work on `O=S1(=O)C=C(Sc2nc3ccccc3s2)c2ccccc21` yielded an IC50 of 0.32 µM.

For `COc1ccc(C(=O)Nc2ccc3[nH]c(-c4cccc(OC)c4)cc(=O)c3c2)cc1`, the IC50 was > 80 µM (inactive).

With `CCN(c1ccccc1)S(=O)(=O)c1ccc(C(=O)NC2CCN(Cc3ccccc3)CC2)cc1` the IC50 was > 80 µM (inactive).

With `O=c1cc(-c2ccccc2)[nH]c2cc(Cl)ccc12` the IC50 was > 80 µM (inactive).

For `CCOc1ccccc1N1CC(O)=C(c2nc3ccccc3s2)C1=N`, the IC50 was 61 µM (inactive).

`CCCCCCCCCCCCCCCC[n+]1ccc(C(N)=O)cc1` gave an IC50 of 8.82 µM.

With `CCOC(=O)C(C)Oc1cccc2c(=O)n(CC(=O)NCc3ccc(F)cc3)ccc12` (stereo not given) the IC50 was > 80 µM (inactive).

For `c1ccc(-c2noc(-c3ccc4ccccc4c3)n2)nc1`, the IC50 was 0.73 µM.

With `CCN(CC)c1ccc2nc3ccc(N)cc3[n+](-c3ccccc3)c2c1` the IC50 was 57.5 µM (inactive).

`COc1cccc(CN(C)C(=O)c2cc(COc3ccc4ncccc4c3)on2)c1` was tested, and the IC50 was > 80 µM (inactive).

`CSc1nc(N(C)NC(=O)c2cccc(C)c2)c2ccccc2n1` was tested, and the IC50 was > 80 µM (inactive).

`CCCC[C@@H](C)C[C@@H](C)C(=O)N(C)[C@@H](CC(C)C)C(=O)N[C@H](C(=O)N(C)[C@H](C(=O)N1C[C@@H](O)C[C@H]1C(=O)N1C(=O)C=C[C@@H]1C)C(C)C)C(C)OC(C)=O` (stereo not given in full) gave an IC50 of less than 0.16 µM.

With `O=C(c1cn(Cc2ccccc2)nc1-c1ccccc1)N1CCN(c2ccccn2)CC1` the IC50 was > 80 µM (inactive).

With `O=Cc1cc2ccccc2nc1SCc1ccc(Cl)c(Cl)c1` the IC50 was 48.8 µM (inactive).

In the case of `Cc1c(C(=O)OC2CCCC2)[nH]c2c1C(=O)CC(c1ccco1)C2` (stereo not given), the IC50 is reported as > 80 µM (inactive).

Work on `C[C@@H]1C=CC(=O)O[C@@H]1c1ccc(Cl)cc1` yielded an IC50 of 5.11 µM.

For `CC(=O)O[C@@]12CO[C@@H]1C[C@H](O)[C@@]1(C)C(=O)[C@H](O)C3=C(C)[C@@H](OC(=O)[C@H](O)[C@@H](NC(=O)c4ccccc4)c4ccccc4)C[C@@](O)([C@@H](OC(=O)c4ccccc4)C12)C3(C)C` (stereo not given in full), the IC50 was > 80 µM (inactive).

With `CC(=O)O[C@H]1C(=O)[C@@]2(C)C([C@H](OC(=O)c3ccccc3)[C@]3(O)C[C@H](OC(=O)[C@H](O)[C@@H](NC(=O)c4ccccc4)c4ccccc4)C(C)=C1C3(C)C)[C@]1(OC(C)=O)CO[C@@H]1C[C@H]2O` (stereo not given in full) the IC50 was > 80 µM (inactive).

In the case of `COc1ccc(C2=NOC(C(=O)NCc3cccs3)C2)cc1OC` (stereo not given), the IC50 is reported as > 80 µM (inactive).

In the case of `COc1cc(/C=C/c2ccc3cccc(O)c3n2)cc(OC)c1OC`, the IC50 is reported as 0.63 µM.

With `Cc1oc(-c2ccc(Cl)cc2)nc1CS(=O)CC(=O)NCCCN1CCN(Cc2ccccc2)CC1` (stereo not given) the IC50 was 60.8 µM (inactive).

For `O=S(=O)(c1ccc2c(c1)OCCO2)N1CCN(c2ncnc3sccc23)CC1`, the IC50 was 4 µM.

In the case of `CCOc1ccc(S(=O)(=O)NCc2ccccn2)cc1NC(=O)c1ccccc1`, the IC50 is reported as > 80 µM (inactive).

For `O=C(Nc1ccc(N2CCN(C(=O)c3ccc(Cl)cc3)CC2)cc1)c1ccc2c(c1)OCCO2`, the IC50 was > 80 µM (inactive).

For `O=C(NCCOc1ccccc1)c1cc([N+](=O)[O-])ccc1N1CCOCC1`, the IC50 was > 80 µM (inactive).

For `CC[C@@]1(O)C(=O)OCc2c1cc1n(c2=O)Cc2cc3c(CN(C)C)c(O)ccc3nc2-1`, the IC50 was 0.96 µM.

In the case of `COC(=O)c1ccccc1NC(=O)Cn1c(-c2nonc2N)nc2ccccc21`, the IC50 is reported as > 80 µM (inactive).

In the case of `O=C(Nc1ccc(S(=O)(=O)Nc2ccc(F)cc2)cc1)c1ccc(CN2CCOCC2)cc1`, the IC50 is reported as > 80 µM (inactive).

`O=C(c1ccccc1-c1ccccc1)N1CCN(c2ccccn2)CC1` was tested, and the IC50 was > 80 µM (inactive).

For `Cc1ccc(S(=O)(=O)NCc2ccncc2)cc1C`, the IC50 was > 80 µM (inactive).

`O=C1c2c(O)ccc(O)c2C(=O)c2c(NCCNCCO)ccc(NCCNCCO)c21` showed an IC50 of 4.2 µM.

In the case of `CCn1c2ccccc2c2cc(NC(=O)c3cc(OC)cc(OC)c3)ccc21`, the IC50 is reported as > 80 µM (inactive).

`CCOc1ccc2c(c1)OC(c1ccc(C)cc1)(C(F)(F)F)NC2=O` (stereo not given) was tested, and the IC50 was > 80 µM (inactive).

`Cn1nc(CC(=O)Nc2ccc(N3CCN(C(=O)OC(C)(C)C)CC3)cc2)c2ccccc2c1=O` was tested, and the IC50 was > 80 µM (inactive).

`CC(C)Oc1ccccc1C1CC(=O)Nc2cc3c(cc21)OCCO3` (stereo not given) was tested, and the IC50 was 59.5 µM (inactive).

With `CCCC(=O)Nc1nc2ccc(S(=O)(=O)N3CCCCC3)cc2s1` the IC50 was > 80 µM (inactive).

With `O=C(O)c1ccc(-c2ccc(-c3ccccc3)cc2)s1` the IC50 was 2.46 µM.

For `CCc1ccc2nc(SCC(=O)Nc3ccccc3N3CCOCC3)c(C#N)cc2c1`, the IC50 was > 80 µM (inactive).

For `COc1ccc(Nc2nc3cc(C)ccc3cc2C#N)c(OC)c1`, the IC50 was > 80 µM (inactive).

`c1ccc2c(c1)CCN(c1ncnc3c1[nH]c1ccccc13)C2` was tested, and the IC50 was 16.8 µM.

`CCn1ncc(C2=NOC(C(=O)NCc3ccccc3)C2)c1C` (stereo not given) was tested, and the IC50 was > 80 µM (inactive).

In the case of `CC1=CC(C)(C)N(S(=O)(=O)c2ccc(C)cc2)c2cc(C)ccc21`, the IC50 is reported as > 80 µM (inactive).

In the case of `CCCCCOC(=O)c1[nH]c2c(c1C)C(=O)CC(c1ccco1)C2` (stereo not given), the IC50 is reported as > 80 µM (inactive).

With `COc1cc(-c2c(-c3cc(OC)c(OC)c(OC)c3)noc2C)ccc1F` the IC50 was > 80 µM (inactive).

`CCN(CC)c1ccc(-c2nn3c(-c4n[nH]c5c4CCC5)nnc3s2)cc1` was tested, and the IC50 was > 80 µM (inactive).

In the case of `Cc1noc(C)c1COc1cccc(C(=O)OCC(=O)N2CC(=O)Nc3ccccc32)c1`, the IC50 is reported as > 80 µM (inactive).

`COCCCNC(=O)C(=O)Nc1ccc2c(c1)N(S(=O)(=O)c1cccs1)CCC2` was tested, and the IC50 was > 80 µM (inactive).

With `O=C(Nc1ccccc1Cl)/C(Cl)=C(\Cl)S(=O)c1ccccc1` (stereo not given) the IC50 was 0.53 µM.

`Cc1nnc(N/N=C/c2ccccn2)[nH]c1=O` gave an IC50 of 1.45 µM.

With `COc1cccc(CN(C)C(=O)c2ccc(OCC(=O)Nc3cccc(C(F)(F)F)c3)c(OC)c2)c1` the IC50 was 65.7 µM (inactive).

In the case of `C#Cc1ccc([C@@H]2C=C(C(=O)N3CCN(Cc4ccccc4)CC3)O[C@H](OCCCCO)C2)cc1`, the IC50 is reported as > 80 µM (inactive).

For `O=C(N/N=C/c1ccccc1Cl)c1[nH]c2ccc(Br)cc2c1-c1ccccc1`, the IC50 was > 80 µM (inactive).

In the case of `COc1ccc(OC)c(-c2nnc3n2N=C(c2ccc(OC)c(OC4CCCC4)c2)CS3)c1`, the IC50 is reported as 35.3 µM (inactive).

With `COc1ccc(OC)c(-c2nnc3n2N=C(c2ccc(OC)c(OC)c2)CS3)c1` the IC50 was 55.2 µM (inactive).

`CCOc1ccccc1NS(=O)(=O)c1ccc(-c2cnc(C3CC3)o2)cc1` was tested, and the IC50 was > 80 µM (inactive).

For `O=C(c1ccc(CS(=O)c2ccccc2Cl)o1)N1CCN(c2ccccn2)CC1` (stereo not given), the IC50 was > 80 µM (inactive).

`CS(=O)(=O)c1ccc(Sc2nc3ccccc3s2)c([N+](=O)[O-])c1` was tested, and the IC50 was 1.11 µM.
